Laboratory results reported in ChEMBL document CHEMBL2074498, “Induction of the multispecific organic anion transporter (cMoat/mrp2) gene and biliary glutathione secretion by the herbicide 2,4,5-trichlorophenoxyacetic acid in the mouse liver” (Biochem J, 1999).

Columns and labels:
[1] = target: T1, ATP-binding cassette sub-family C member 2 (Mus musculus, UniProt Q8VI47); assay: TP_TRANSPORTER: Northern blot in vivo, liver of CF I mouse; format: functional, organism-based
[2] = target: T1, ATP-binding cassette sub-family C member 2; assay: TP_TRANSPORTER: Western in vivo, liver of CF I mouse; format: functional, organism-based

T1 sequence (Q8VI47 whole entry): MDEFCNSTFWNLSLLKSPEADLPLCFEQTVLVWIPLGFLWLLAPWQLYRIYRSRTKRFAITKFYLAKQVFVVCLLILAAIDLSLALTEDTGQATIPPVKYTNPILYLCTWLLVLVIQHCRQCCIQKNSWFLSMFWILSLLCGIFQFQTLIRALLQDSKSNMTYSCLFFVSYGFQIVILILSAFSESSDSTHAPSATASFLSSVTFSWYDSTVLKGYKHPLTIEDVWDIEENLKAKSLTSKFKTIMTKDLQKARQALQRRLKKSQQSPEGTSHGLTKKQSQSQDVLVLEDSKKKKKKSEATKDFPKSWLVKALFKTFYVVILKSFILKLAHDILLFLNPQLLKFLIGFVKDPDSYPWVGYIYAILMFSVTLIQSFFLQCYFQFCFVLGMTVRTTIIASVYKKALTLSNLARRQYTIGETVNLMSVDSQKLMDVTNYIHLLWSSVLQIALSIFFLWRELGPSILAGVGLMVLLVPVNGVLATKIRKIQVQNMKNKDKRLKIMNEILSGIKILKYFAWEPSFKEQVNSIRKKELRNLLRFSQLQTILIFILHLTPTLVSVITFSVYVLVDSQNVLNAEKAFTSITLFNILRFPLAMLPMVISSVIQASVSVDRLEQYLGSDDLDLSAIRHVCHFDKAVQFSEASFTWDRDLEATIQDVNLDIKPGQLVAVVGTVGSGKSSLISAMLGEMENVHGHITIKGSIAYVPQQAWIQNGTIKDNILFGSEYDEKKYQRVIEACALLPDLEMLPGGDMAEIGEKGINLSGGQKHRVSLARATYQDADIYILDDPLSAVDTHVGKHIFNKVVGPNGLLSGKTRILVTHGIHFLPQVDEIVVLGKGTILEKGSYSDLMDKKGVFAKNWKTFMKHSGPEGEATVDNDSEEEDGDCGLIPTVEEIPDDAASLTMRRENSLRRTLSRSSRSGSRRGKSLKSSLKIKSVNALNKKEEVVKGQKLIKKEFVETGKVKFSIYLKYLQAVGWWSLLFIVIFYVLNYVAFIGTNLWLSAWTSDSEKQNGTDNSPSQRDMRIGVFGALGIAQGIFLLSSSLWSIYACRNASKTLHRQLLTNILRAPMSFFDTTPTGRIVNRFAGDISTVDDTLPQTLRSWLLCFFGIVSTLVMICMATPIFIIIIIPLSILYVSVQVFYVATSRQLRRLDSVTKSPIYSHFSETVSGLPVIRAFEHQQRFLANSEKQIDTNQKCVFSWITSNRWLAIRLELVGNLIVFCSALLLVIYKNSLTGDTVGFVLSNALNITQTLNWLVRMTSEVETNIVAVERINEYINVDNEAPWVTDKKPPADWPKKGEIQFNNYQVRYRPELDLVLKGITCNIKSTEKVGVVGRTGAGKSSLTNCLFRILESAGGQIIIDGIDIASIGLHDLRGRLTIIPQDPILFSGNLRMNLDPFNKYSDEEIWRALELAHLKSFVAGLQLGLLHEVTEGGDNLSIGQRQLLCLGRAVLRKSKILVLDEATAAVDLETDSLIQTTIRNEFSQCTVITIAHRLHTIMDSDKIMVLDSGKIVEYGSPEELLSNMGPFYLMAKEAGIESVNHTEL

Q: Which Activity [1] does the source give for O=C(O)COc1cc(Cl)c(Cl)cc1Cl [2,4,5-TRICHLOROPHENOXYACETIC ACID] here?
A: inducer [+]

Q: What about the Activity [2] of the same molecule?
A: inducer [+]
